Tests used:
[1] = system: XP144 TGs; test: Tumorgraft growth in different hosts, mixed-model analysis, XP144; format: in vivo, mice
Procedure: (§1) Tumor samples were collected from patients under IRB-approved protocol as previously described. 6-to-8-week-old NOD/SCID mice originally obtained from the UT Southwestern Breeding Core were implanted subcutaneously with patient-derived TGs. Calipers were used to measure tumor dimensions. Volume was calculated by multiplying width, length, and height, thereby minimizing the potential bias of disproportionately weighing one particular dimension (at the cost of overestimating tumor volumes). […] Tumors were measured weekly. As indicated, vehicle-treated tumors and rapamycin-sensitive tumors were harvested around 28 days. […] In accordance with UT Southwestern Institutional Animal Care and Use Committee policies, animals were euthanized once tumor diameters were larger than 2 cm.
(§2) Bar charts and series plots are presented as the mean±standard error of the mean (SEM) from more than three independent experiments. Unless otherwise indicated, the statistical significance was determined by t-test using GraphPad Prism. For each XP line, ANOVA with post-hoc t-tests were used to test for differential (phospho)protein levels between the three arms in the RPPA analysis (vehicle-treated, rapamycin-sensitive, and rapamycin-resistant) with FDR-adjusted P-values. For the mixed model analysis, data were summarized as mean tumor growth per day with 95% confidence intervals, as well as by fold change between groups. A positive fold change indicates increased tumor growth rates in the first group compared to the second. Estimates were obtained from a three-way factorial mixed model analysis for treatment group, mouse type, and day of measurement. Baseline volume was also included as a term in the model to control for differences in starting volumes. An autoregressive (AR-1) covariance structure was used to account for the correlation among repeated measurements for each mouse. ANOVA and mixed model analyses were completed using SAS 9.4. A P-value <0.05 was considered significant.
(§3) XP144, XP164 and XP490 were then implanted into NOD/SCID^mTOR-ST mice.
(§4) The mTOR-ST mutation had the least effect on XP490. […] In Table 4, data are summarized with mean tumor growth rates per day (95% confidence intervals) with fold change between the two groups. A positive fold change indicates increased tumor growth rates in the first group. mTOR-WT, wild type mice; mTORST, heterozygous mTOR-ST mice; mTORST/ST, homozygous mTOR-ST mice. Rapa, rapamycin-treatment; Veh, vehicle-treatment

[2] = system: XP164 TGs; test: Tumorgraft growth in different hosts, mixed-model analysis, XP164; format: in vivo, mice
Procedure: as §1, §2, §3, §4

[3] = system: XP490 TGs; test: Tumorgraft growth in different hosts, mixed-model analysis, XP490; format: in vivo, mice
Procedure: as §1, with “weekly.” for “weekly. As indicated, vehicle-treated tumors and rapamycin-sensitive tumors were harvested around 28 days.”
as §2, with “For each XP line, ANOVA with post-hoc t-tests were used to test for differential (phospho)protein levels between the three arms in the RPPA analysis (vehicle-treated, rapamycin-sensitive, and rapamycin-resistant) with FDR-adjusted P-values.” left out
as §3
A positive fold change indicates increased tumor growth rates in the first group. mTOR-WT, wild type mice; mTORST, heterozygous mTOR-ST mice; mTORST/ST, homozygous mTOR-ST mice.

[4] = following temsirolimus administration in patients; cited from earlier work

In the case of `CO[C@H]1C[C@@H]2CC[C@@H](C)[C@@](O)(O2)C(=O)C(=O)N2CCCC[C@H]2C(=O)O[C@H]([C@H](C)C[C@@H]2CC[C@@H](O)[C@H](OC)C2)CC(=O)[C@H](C)/C=C(\C)[C@@H](O)[C@@H](OC)C(=O)[C@H](C)C[C@H](C)/C=C/C=C/C=C/1C` [rapamycin], the “effect on tumor growth” value ([1]; XP144, NOD/SCID^mTOR-ST mice) is reported as “no significant effect”, the “Mean tumor growth per day (95% CI)” value ([1]; XP144, mTOR^ST (heterozygous) mice) is reported as 54.6 (36.8, 72.4) vs and the “Mean tumor growth per day (95% CI)” value ([1]; XP144, mTOR^WT mice, rapamycin 0.5 mg/kg IP every 48 hours) is reported as 20.4 (10.5, 30.3) vs. For the same molecule, the “reduction of tumor growth” value ([1]; XP144, wild-type mice, vs vehicle) was 1.5 fold, the “effect on tumor growth” value ([2]; XP164, NOD/SCID^mTOR-ST mice) was “no significant effect” and the “Mean tumor growth per day (95% CI)” value ([2]; XP164, mTOR^ST (heterozygous) mice) was 67.6 (57.2, 78.0) vs. For the same molecule, the “Mean tumor growth per day (95% CI)” value ([2]; XP164, mTOR^ST/ST (homozygous) mice) was 69.5 (58.5, 80.6) vs, the “Mean tumor growth per day (95% CI)” value ([2]; XP164, mTOR^WT mice) was 18.3 (12.6, 24.0) vs and the “delay of tumor growth” value ([2]; XP164, wild-type mice, vs vehicle) was 3.7 fold. The “inhibition of tumor growth” value ([3]; XP490, mTOR-ST homozygous mice) was 2 fold, the “Mean tumor growth per day (95% CI)” value ([3]; XP490, mTOR^ST (heterozygous) mice) was 15.0 (11.7, 18.3) vs and the “Mean tumor growth per day (95% CI)” value ([3]; XP490, mTOR^WT mice) was 5.1 (1.1, 9.1) vs. For the same molecule, the “inhibition of tumor growth” value ([3]; XP490, mice with the resistance mutation (heterozygous mTOR-ST)) was 6 fold, the “reduction of tumor growth” value ([3]; XP490, wild-type mice, vs vehicle) was 11 fold and the “reduction of tumor growth inhibition in the resistant host” value ([3]; third TG line, resistant host vs wild type) was no more than 5 fold. The “share of the circulating drug” value [4] was 70%.

From US20250325528A1, “[…] ROLE OF mTORC1 INHIBITION OF NON-TUMOR CELLS” (THE BOARD OF REGENTS OF THE UNIVERSITY OF TEXAS SYSTEM, priority 2024, published 2025)
